Patent US20080226624A1, “Combined treatment of cancer by urokinase inhibition and a cytostatic anti-cancer agent for enhancing the anti-metastatic effect” (priority 2007, published 2008)

How the values were obtained:
uPA = uPA (Homo sapiens, UniProt P00749); conditions: L-confirmation; cited from earlier work
tumor cell invasion = conditions: cited from earlier work
plasmin = plasmin (Homo sapiens, UniProt P00747); conditions: L-confirmation; cited from earlier work
BN472 rat mammary tumors = system: BN472 rat mammary tumors
Protocol: Small tumor cubes (2×2×2 mm) were prepared from a tumor grown in a donor rat and implanted orthotopically under the fat pad of the mammary gland.
The effects of treatments on body weight and tumor load were evaluated twice weekly. The final evaluation was done at the end of the therapy period after all rats had been sacrificed. Graphical evaluations of the endpoints considered, i.e., tumor size and weight, axillary lymph-node weights, the number of macroscopic lung foci, and the weights of the thymus, uterus, spleen and liver, are depicted in FIGS. 3, 3a, 3b, 3c, 3d and 3e.

[1] = irinotecan mono-therapy, both doses (2 and 6 mg/kg daily i.p.)

plasmin, sequence (P00747 581-810 limits assumed, species assumed): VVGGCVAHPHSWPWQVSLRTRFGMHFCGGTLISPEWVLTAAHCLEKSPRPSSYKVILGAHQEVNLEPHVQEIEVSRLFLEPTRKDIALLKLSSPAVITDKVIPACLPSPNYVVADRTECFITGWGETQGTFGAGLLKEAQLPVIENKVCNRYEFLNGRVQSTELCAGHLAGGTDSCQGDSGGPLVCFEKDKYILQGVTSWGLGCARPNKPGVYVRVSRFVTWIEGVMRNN
plasmin, sequence (P00747 97-580 partner limits assumed, species assumed): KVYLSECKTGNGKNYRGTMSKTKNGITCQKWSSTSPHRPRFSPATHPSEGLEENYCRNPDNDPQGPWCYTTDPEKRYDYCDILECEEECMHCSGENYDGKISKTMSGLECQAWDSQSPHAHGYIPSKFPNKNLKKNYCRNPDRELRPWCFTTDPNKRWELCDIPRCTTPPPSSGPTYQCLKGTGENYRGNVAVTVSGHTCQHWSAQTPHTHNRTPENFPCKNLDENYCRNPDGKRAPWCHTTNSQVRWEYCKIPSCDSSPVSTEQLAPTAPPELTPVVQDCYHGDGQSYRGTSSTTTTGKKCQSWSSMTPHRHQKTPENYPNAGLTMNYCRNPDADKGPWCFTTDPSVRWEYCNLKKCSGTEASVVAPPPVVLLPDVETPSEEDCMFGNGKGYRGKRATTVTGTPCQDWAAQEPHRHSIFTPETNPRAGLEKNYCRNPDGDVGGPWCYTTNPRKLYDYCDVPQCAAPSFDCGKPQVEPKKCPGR

| SMILES | Ki values, inhibition of uPA (uPA) | tumor cell invasion in vitro (tumor cell invasion) | Ki values, inhibition of plasmin (plasmin) | tolerability (daily observations during the treatment period) (BN472 rat mammary tumors; WX-671 0.3 mg/kg daily p.o., irinotecan 2 or 6 mg/kg daily i.p.) | axillary lymph-nodes weight (BN472 rat mammary tumors; [1]) | number of lung foci (BN472 rat mammary tumors; [1]) | tumor growth (BN472 rat mammary tumors; irinotecan mono-therapy, daily i.p.) |
| --- | --- | --- | --- | --- | --- | --- | --- |
| CCOC(=O)N1CCN(C(=O)[C@H](Cc2cccc(C(=N)N)c2)NS(=O)(=O)c2c(C(C)C)cc(C(C)C)cc2C(C)C)CC1 [WX-UK1, N[alpha]-(2,4,6-triisopropylphenylsulfonyl)-3-amidino-(L)-phenylalanine 4-ethoxycarbonylpiperazide] | low- or sub-micromoles range | suppress tumor cell invasion in vitro | low- or sub-micromoles range | – | – | – | – |
| CCc1c2c(nc3ccc(OC(=O)N4CCC(N5CCCCC5)CC4)cc13)-c1cc3c(c(=O)n1C2)COC(=O)[C@]3(O)CC [irinotecan] | – | – | – | generally well tolerated | significantly inhibited | significantly inhibited | inhibition of tumor growth |
